In one assay the target is T1, human full length Hsp90 (Homo sapiens, UniProt P07900).
T1 construct: amino acid residues 1 to 732 of human Hsp90 (GenBank: BC121062.2); made in house; host or cells: E. coli BL21DE3 (pET15b)
Put plainly: Fluorescence polarization Hsp90 competitive binding assay (GM-FITC displacement). The procedure:
Hsp90 binding assays was performed generally according to the procedure described in J. Biomol. […] Hsp90 inhibitors were solubilized in DMSO at a stock concentration of 50 mM. […] Eighty five μl of binding assay buffer (20 mM HEPES, pH-7.5, 50 mM KCl, 5 mM MgCl2, 20 mM sodium molybdate, 0.01% NP-40, 2 mM DTT, and 0.1 mg/ml BSA) was added to the wells of a 96 well black plate placed on ice. […] Next, 10 μl either binding assay buffer alone (control) or human full length Hsp90 protein diluted in the binding assay buffer was added to achieve a final concentration of 50 nM. The plates were incubated at 4° C. on a plate shaker for 24 h. Two μl of 50× GM-FITC (9 nM final) in DMSO was added to all wells and the plate was incubated at ambient temperature for 1 h with shaking. Fluorescence polarization readings were taken in duplicate at excitation and emission wavelengths of 480 nm and 500 nm respectively. Specific binding was calculated by subtracting polarization values in the presence of Hsp90 from those in the absence of Hsp90. To calculate percent inhibition the specific binding values obtained for GA-FITC in the presence of compound were compared to values for GA-FITC in the absence of compound (DMSO only).
On the technique in general: Polarisation of emitted light reports the rotation of a fluorescent probe.

A further assay deals with Akt1 in LnCaP cells. Put plainly: Akt1 degradation in cell lysates, ELISA. Format: cell-based. To be noted: Homo sapiens, 48 h. The method, then: Tumor cell lines (LnCaP) were obtained from the Sanford Burnham Medical Research Institute (La Jolla, Calif.), LnCaP cells were cultured in culture medium (RPMI-glutamax, 10% FCS, 100 units/ml penicillin, and 100 μg/ml streptomycin). Cells were passaged after lifting using 0.25% trypsin/EDTA, and 3×10^5 cells were seeded in each well of six well plates (total volume 2.5 mL/well). After the cells were cultured for 24 h, increasing concentrations of Hsp90 inhibitor were added to wells in triplicate from DMSO-containing stock solutions and mixed by gently by stirring. Final DMSO concentration in all wells was 0.25%. The treated cells were then cultured for 48 h prior to lysate preparation. […] The protein concentration in the cell lysates was determined using the BCA protein assay kit used according to the manufacturer's recommendations. […] Two hundred μL of BCA Protein Assay Kit reagent was added and the mixtures were incubated at 37° C. for 30 min Protein concentrations were determined using a micro-titer plate reader (Model #Synergy HT; BioTek Inc., Winooski, Vt.).
Akt1 levels in the cell lysates were measured using kits from R&D Systems used according to the manufacturer's recommendations. […] Akt1 levels were determined using a micro-titer plate reader (Model #Synergy HT; BioTek Inc., Winooski, Vt.). […] Fluorescence intensities of the dilutions were measured to obtain a standard curve. […]
In general terms: An ELISA detects its analyte on a solid surface through an enzyme-linked reagent.

The subject of the next assay is Hsp90. Put plainly: Rat CNS Hsp90 inhibition (ex vivo labeled geldanamycin displacement in CNS lysates). To be noted: 40 mg/kg.
The test system of assay [1] is Hsp70 in MBA-MD-231 cells. In words: Hsp70 induction, ELISA. It is filed as cell-based. The conditions noted are these: MBA-MD-231, 48 hours. The method, then:
(§1) Experiments were performed using U251 MG and MBA-MD-231 cells to also measure induction of Hsp 70 in response to treatment with SBI-0640725. […] For Hsp70 induction measurements, cells were treated with increasing concentrations of SBI-0640725 for 48 hours, and Hsp70 levels were measured in cell lysates using ELISA.

The next assay deals with U87MG. In words: Efficacy in GBM cells, ADP-GLO. Format: cell-based. To be noted: Homo sapiens, U-87 MG. For orientation: ADP-Glo first removes unused ATP, then detects ADP through luciferase.
The next assay relates to Akt1 in MBA-MD-231 cells. In words: Hsp90 client protein stability, Akt1 ELISA. It is filed as cell-based. To be noted: MBA-MD-231, 48 hours, increasing concentrations. The procedure:
In further experiments, the effect of SBI-0640725 on the stability of Hsp90 client proteins was analyzed. […] Akt1 protein levels were measured in cell lysates using ELISA.

For another assay, the system named is Hsp70 in U251 MG cells. Put plainly: Hsp70 induction, ELISA. It is filed as cell-based, human. The conditions noted are these: U251MG, 48 hours. The method, then: as §1
The mark [2] stands for this setting: IC50, inhibition of Hsp90 activity, FIG. 7 concentration response.
[3] abbreviates: Table 1, 50 nM Hsp90, 9 nM GM-FITC, read-out: Biochemical Potency IC50.
The mark [4] stands for this setting: Table II, binding affinities ranked by potency.
Setting [5] is: Table II, binding affinities ranked by potency, read-out: IC50.

Like-named read-outs stand apart in the source and are kept apart here.

In the case of `COc1c(C)cnc(CN(CCc2ccccc2)c2cc(Cl)nc(N)n2)c1C` [SBI-0639353, 6-Chloro-N4-((4-methoxy-3,5-dimethylpyridin-2-yl)methyl)-N4-phenethylpyrimidine-2,4-diamine], the IC50 at human full length Hsp90 (setting [2]) is 255 nM; at human full length Hsp90 (setting [3]) it was 255 nM; on human full length Hsp90 (setting [5]), 255 nM; at human full length Hsp90 (assay validation / precision runs, read-out: IC50), 255 to 308 nM; with Akt1 in LnCaP cells, 5400 nM. The compound also came in with an inhibition constant Ki on human full length Hsp90 (setting [4]) of 64 nM. For the same compound, in the assay on Hsp90, the “inhibition of Hsp90 activity in CNS tissues” value is “inhibition of Hsp90 activity”.

In the case of `COc1c(C)cnc(CN(CCc2ccc(F)cc2)c2cc(Cl)nc(N)n2)c1C` [SBI-0640725], the “induction of Hsp70” value (in assay [1]; in the assay with Hsp70 in U251 MG cells) was “caused induction of Hsp70” throughout. Besides, the IC50 on human full length Hsp90 (setting [2]), on human full length Hsp90 (setting [3]) and at human full length Hsp90 (setting [5]) was 101 nM throughout. Moreover, the Ki at human full length Hsp90 (setting [4]) turned out to be 25 nM. Further, the EC50 in the assay on U87MG stood at 6700 nM. Also, the “levels of the client protein Akt1” value with Akt1 in MBA-MD-231 cells was “progressive decrease in the levels of the client protein Akt1”.

What is called IC50 is the concentration that gives 50% inhibition. Usually Ki stands for a dissociation constant, usually derived from enzyme kinetics or from competition with a known ligand. A low value points to tighter binding. What is called EC50 is the concentration needed to bring the measured effect to its halfway point. A higher EC50 goes with a need for much substance.

The values above are taken from US20160311795A1, “PYRIMIDINE DIAMINE DERIVATIVES AS INHIBITORS OF CYTOSOLIC HSP90” (CALASIA PHARMACEUTICALS, INC., priority 2012, published 2016).
